Five compounds from patent US8461125B2, “Compositions and methods to treat asthma” (The Children's Hospital of Philadelphia, priority 2008, dated 2013) can be followed below.

The subject of one data set is rabbit ASM tissues. Briefly: Constrictor and relaxation responsiveness in isolated rabbit ASM tissues (organ bath, isometric tension). The note with it: rabbit ASM tissues exposed 24 hr to IgE immune complexes, pretreatment 10 μM. The source says: The following materials and methods are provided to facilitate practice of the present invention: • Materials: All chemicals were purchased from Sigma-Aldrich unless otherwise indicated. The human ASM cells were obtained from BioWhittaker, Inc. • Animals: Adult New Zealand White rabbits were used in this study, which was approved by the Biosafety and Animal Research Committee of the Joseph Stokes Research Institute at Children's Hospital of Philadelphia. The animals had no signs of respiratory disease for several weeks before the study, and their care and use were in accordance with the “Guide for the Care and Use of Laboratory Animals” prepared by the Institute of Laboratory Animal Resources, National Research Council. • Immunization protocol: Rabbits were actively immunized by an intra-peritoneal injection of 1 ml of an emulsion containing ovalbumin (OVA; 2.5 mg in PBS) mixed in equal part with adjuvant, administered each week for 3 weeks and, thereafter, every alternate week for a one month period. Non-immunized rabbits receiving injections with PBS alone served as controls. Thereafter, the rabbits were challenged by airway administration of a 3% solution of OVA. […]

The subject of a further data set is cAMP PDE4 activity. Briefly: cAMP PDE activity in isolated rabbit ASM tissues after pro-asthmatic sensitization. The note with it: FIG. 7B; rabbit ASM tissues sensitized 24 hr with IgE immune complexes.
The test system of a further data set is CD23a mRNA. Briefly: siRNA-mediated knockdown of CD23a mRNA expression in cultured human ASM cells (RT-PCR). It counts as cell-based. The conditions noted are these: 100 nM each siRNA duplex; for CD23a mRNA expression (constitutive): FIG. 2, human ASM cells, control conditions, Oligofectamine-mediated transfection; for CD23a mRNA expression in IL-13-treated ASM cells / CD23a mRNA expression in vehicle-exposed ASM cells: FIG. 3, Oligofectamine transfection; for CD23a mRNA expression in IL-13-treated ASM cells: human ASM cells exposed 12 hr to IL-13 (50 ng/ml); for CD23a mRNA expression in vehicle-exposed ASM cells: human ASM cells exposed 12 hr to vehicle. The source says: The following materials and methods are provided to facilitate practice of the present invention: • Materials: All chemicals were purchased from Sigma-Aldrich unless otherwise indicated. The human ASM cells were obtained from BioWhittaker, Inc. • Animals: Adult New Zealand White rabbits were used in this study, which was approved by the Biosafety and Animal Research Committee of the Joseph Stokes Research Institute at Children's Hospital of Philadelphia. The animals had no signs of respiratory disease for several weeks before the study, and their care and use were in accordance with the “Guide for the Care and Use of Laboratory Animals” prepared by the Institute of Laboratory Animal Resources, National Research Council. • Immunization protocol: Rabbits were actively immunized by an intra-peritoneal injection of 1 ml of an emulsion containing ovalbumin (OVA; 2.5 mg in PBS) mixed in equal part with adjuvant, administered each week for 3 weeks and, thereafter, every alternate week for a one month period. Non-immunized rabbits receiving injections with PBS alone served as controls. Thereafter, the rabbits were challenged by airway administration of a 3% solution of OVA. […] Approximately 40 ml of blood was then drawn via an ear vein from each of the immunized and control rabbits for preparation of asthmatic and non-asthmatic serum samples to be used for subsequent passive sensitization of ASM tissue segments isolated from naïve rabbits, as described below. • siRNA-mediated knockdown of CD23 in cultured ASM cells: Human ASM cells were grown in SmBm media supplemented with 10% FBS (BioWhittaker) and maintained throughout in a humidified incubator containing 5% CO2 in air at 37° C. The experimental protocols involved seeding the cells into 6-well plates and, at ˜40% confluency, the medium was replaced with the reduced serum-containing medium, Opti-MEM (Invitrogen). Separate preparations of cells were then transfected twice during a 24-hr interval with each of four different siRNA duplexes targeted against human CD23, using Oligofectamine (Invitrogen) as the transfection agent. The siRNA preparations were purchased from Applied Biosystems and comprised the following nucleotide sequences:
Additionally, cell preparations were also transfected with either a pool of these CD23-directed siRNA duplexes, a non-targeted negative control (scrambled) siRNA duplex, or a negative control duplex labeled with the […], Cy™3, to visualize siRNA transfection efficiency. The siRNAs were applied to each well at a final concentration of 100 nM for each siRNA duplex. After 3 days, the cells were exposed for 12 hr to either vehicle alone or the pro-asthmatic cytokine, IL-13 (50 ng/ml), which is known to upregulate CD23 expression in human monocytes. The cells were subsequently examined for induced changes in mRNA expression of CD23a. • Detection of CD23 mRNA transcripts: Total RNA was extracted from the cultured ASM cells using the TRIzol method (Invitrogen), and cDNAs were isolated by RT-PCR using the SuperScript First Strand Synthesis System kit from Invitrogen, with the following oligonucleotide primer sets (Integrated DNA Technologies): for CD23a, (SEQ ID NO: 11) 5′-[…]-3′ (forward) and (SEQ ID NO: 12) 5′-[…]-3′ (reverse); and for β-actin, (SEQ ID NO: 13) 5′-[…]-3′ (forward) and (SEQ ID NO: 14) 5′-[…]-3′ (reverse). The reaction volume was 20 μl and cycling conditions used were 35 cycles of 30 sec denaturation at 95° C., followed by 30 sec annealing at 60° C. and elongation at 72° C. for 30 sec. Ex-Tag (Takara Biotechnology) was used as DNA polymerase. • Pharmacodynamic studies of constrictor and relaxation responsiveness in rabbit ASM tissues: Following initial sedation and subsequent general anesthesia with intramuscular injections of xylazine (10 mg/kg) and ketamine (50 mg/kg), respectively, rabbits were sacrificed with an intravenously administered overdose of sodium pentobarbital (100 mg/kg). […]

In the case of `COc1ccc(C2CNC(=O)C2)cc1OC1CCCC1` (centres unmarked) [rolipram], in the data set on rabbit ASM tissues (FIG. 5A), the “Induced pro-asthmatic change in constrictor responsiveness to ACh” value is “prevented”. Further, the “Induced pro-asthmatic change in relaxation responsiveness to isoproterenol” value in the data set with rabbit ASM tissues (FIG. 5B) is listed as “prevented”. Further, in the data set with cAMP PDE4 activity, the “Induced upregulation of cAMP PDE4 activity” value is listed as “inhibitory effect”.

Take “#106644: siRNA duplex against human CD23 (Applied Biosystems): sense 5′-GGAGGUGACAAAGCUAAGGtt-3′, antisense 5′-CCUUAGCUUUGUCACCUCCtc-3′ (sense GGAGGUGACAAAGCUAAGGTT; antisense CCUUAGCUUUGUCACCUCCTC; chemistry not given here)”: in the data set on CD23a mRNA, the “CD23a mRNA expression (constitutive)” value is on record as “no effect”, the “CD23a mRNA expression in IL-13-treated ASM cells” value was “no effect” and the “CD23a mRNA expression in vehicle-exposed ASM cells” value was “no effect”.

Turning to “#106645: siRNA duplex against human CD23 (Applied Biosystems): sense 5′-GGUGACAAAGCUAAGGAUGtt-3′, antisense 5′-CAUCCUUAGCUUUGUCACCtc-3′ (sense GGUGACAAAGCUAAGGAUGTT; antisense CAUCCUUAGCUUUGUCACCTC; chemistry not given here)”, in the data set on CD23a mRNA, the “CD23a mRNA expression (constitutive)” value was “distinctly inhibited”, the “CD23a mRNA expression in IL-13-treated ASM cells” value is recorded as “markedly inhibited” and the “CD23a mRNA expression in vehicle-exposed ASM cells” value is recorded as “markedly inhibited”. In the data set with CD23a mRNA (listed as 106645), the “CD23a mRNA expression (constitutive)” value was “marked inhibition”.

Take “#111060: siRNA duplex against human CD23 (Applied Biosystems): sense 5′-GGAAUUGAACGAGAGGAACtt-3′, antisense 5′-GUUCCUCUCGUUCAAUUCCtg-3′ (sense GGAAUUGAACGAGAGGAACTT; antisense GUUCCUCUCGUUCAAUUCCTG; chemistry not given here)”: in the data set on CD23a mRNA, the “CD23a mRNA expression (constitutive)” value is “distinctly inhibited”, the “CD23a mRNA expression in IL-13-treated ASM cells” value is recorded as “markedly inhibited” and the “CD23a mRNA expression in vehicle-exposed ASM cells” value is recorded as “markedly inhibited”. Also, in the data set on CD23a mRNA (listed as 111060), the “CD23a mRNA expression (constitutive)” value is listed as “marked inhibition”.

Take “#111062: siRNA duplex against human CD23 (Applied Biosystems): sense 5′-CGAAGCUUCAGAUUUGCUGtt-3′, antisense 5′-CAGCAAAUCUGAAGCUUCGtt-3′ (sense CGAAGCUUCAGAUUUGCUGTT; antisense CAGCAAAUCUGAAGCUUCGTT; chemistry not given here)”: in the data set on CD23a mRNA, the “CD23a mRNA expression (constitutive)” value is given as “no effect”, the “CD23a mRNA expression in IL-13-treated ASM cells” value is listed as “no effect” and the “CD23a mRNA expression in vehicle-exposed ASM cells” value is “no effect”.
